# Measurements: publication PMC6345968, “Structural basis for species-selective targeting of Hsp90 in a pathogenic fungus” (Nature Communications, 2019)
# Read-outs that look alike come from different tables or passages of the source.
# Tests used:
# [1] = biological target: T1, Hsp90 in C. albicans (SC5314) lysate (Candida albicans, UniProt P46598); assay: biochemical; assay type: binding; conditions: for EC50: read-out: EC50; for FP signal: raw
# T1 construct: endogenous in cells; host or cells: C. albicans SC5314 whole-cell lysate
# T1 sequence (P46598 whole entry): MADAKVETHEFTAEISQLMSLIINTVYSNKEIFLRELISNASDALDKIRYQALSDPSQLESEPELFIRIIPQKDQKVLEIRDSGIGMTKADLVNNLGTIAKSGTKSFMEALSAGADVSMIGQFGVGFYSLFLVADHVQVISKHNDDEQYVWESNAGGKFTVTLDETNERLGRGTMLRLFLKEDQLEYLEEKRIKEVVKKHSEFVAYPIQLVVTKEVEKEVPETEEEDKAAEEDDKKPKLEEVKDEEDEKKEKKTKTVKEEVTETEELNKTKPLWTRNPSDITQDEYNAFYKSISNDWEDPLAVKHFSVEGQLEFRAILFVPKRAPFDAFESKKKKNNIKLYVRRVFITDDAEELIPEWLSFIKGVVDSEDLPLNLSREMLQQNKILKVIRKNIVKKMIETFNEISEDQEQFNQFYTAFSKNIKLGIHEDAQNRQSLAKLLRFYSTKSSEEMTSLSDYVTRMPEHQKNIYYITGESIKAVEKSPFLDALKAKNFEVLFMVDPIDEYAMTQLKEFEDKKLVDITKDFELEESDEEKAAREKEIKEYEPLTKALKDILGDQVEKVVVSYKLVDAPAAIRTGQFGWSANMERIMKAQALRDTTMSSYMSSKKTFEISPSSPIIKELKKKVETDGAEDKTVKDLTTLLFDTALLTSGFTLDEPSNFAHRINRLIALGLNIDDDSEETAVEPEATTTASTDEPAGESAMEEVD
# Hsp90 in HEPG2 lysate = conditions: for FP signal: raw
# [2] = EC50 relative to GdA, SC5314 lysate
# [3] = EC50 relative to GdA, HEPG2 lysate
# [4] = HEPG2 lysate, log concentration 0.137354 (1.372 nM)
# [5] = HEPG2 lysate, log concentration 0.61437 (4.115 nM)
# [6] = HEPG2 lysate, log concentration 1.09153 (12.346 nM)
# [7] = HEPG2 lysate, log concentration 1.56864 (37.037 nM)
# [8] = HEPG2 lysate, log concentration 2.04576 (111.111 nM)
# [9] = HEPG2 lysate, log concentration 2.52288 (333.333 nM)
# [10] = HEPG2 lysate, log concentration 3 (1000 nM)
# [11] = HEPG2 lysate, log concentration 3.47712 (3000 nM)
# [12] = HEPG2 lysate, log concentration -0.340084 (0.457 nM)
# [13] = SC5314 lysate, 0.457 nM compound
# [14] = SC5314 lysate, 1.372 nM compound
# [15] = SC5314 lysate, 4.115 nM compound
# [16] = SC5314 lysate, 12.346 nM compound
# [17] = SC5314 lysate, 37.037 nM compound
# [18] = SC5314 lysate, 111.111 nM compound
# [19] = SC5314 lysate, 333.333 nM compound
# [20] = SC5314 lysate, 1000 nM compound
# [21] = SC5314 lysate, 3000 nM compound
structure (smiles),measurement,setting,value
CC1(C)CC(=O)c2c(C(F)(F)F)nn(-c3ccc(C(N)=O)c(N[C@H]4CC[C@H](OC(=O)CN)CC4)c3)c2C1 [SNX-5422],Hep/SC,[1]; EC50 HEPG2 / EC50 SC5314,5.438
same,Rel. to GdA,[1]; [2],0.6171
same,Hep/Sc rel. Gda,[1]; Hep/SC ratio relative to that of GdA,4.063
same,FP signal (raw),"[1]; SC5314 lysate, 0.457 nM",205
same,FP signal (raw),"[1]; SC5314 lysate, 1.372 nM",197
same,FP signal (raw),"[1]; SC5314 lysate, 4.115 nM",177
same,FP signal (raw),"[1]; SC5314 lysate, 12.346 nM",118
same,FP signal (raw),"[1]; SC5314 lysate, 37.037 nM",60
same,FP signal (raw),"[1]; SC5314 lysate, 111.111 nM",41
same,FP signal (raw),"[1]; SC5314 lysate, 333.333 nM",35
same,FP signal (raw),"[1]; SC5314 lysate, 1000 nM",33
same,FP signal (raw),"[1]; SC5314 lysate, 3000 nM",34
same,EC50,[1]; SC5314 lysate,12.1 nM
same,Rel. to GdA,Hsp90 in HEPG2 lysate; [3],2.507
same,EC50,Hsp90 in HEPG2 lysate; HEPG2 lysate,65.6 nM
same,"FP signal, Fxn Control",Hsp90 in HEPG2 lysate; [4],0.9858
same,"FP signal, Fxn Control",Hsp90 in HEPG2 lysate; [5],0.9717
same,"FP signal, Fxn Control",Hsp90 in HEPG2 lysate; [6],0.8821
same,"FP signal, Fxn Control",Hsp90 in HEPG2 lysate; [7],0.7028
same,"FP signal, Fxn Control",Hsp90 in HEPG2 lysate; [8],0.4953
same,"FP signal, Fxn Control",Hsp90 in HEPG2 lysate; [9],0.3632
same,"FP signal, Fxn Control",Hsp90 in HEPG2 lysate; [10],0.25
same,"FP signal, Fxn Control",Hsp90 in HEPG2 lysate; [11],0.217
same,"FP signal, Fxn Control",Hsp90 in HEPG2 lysate; [12],0.9858
same,FP signal (raw),"Hsp90 in HEPG2 lysate; HepG2 lysate, 0.457 nM",209
same,FP signal (raw),"Hsp90 in HEPG2 lysate; HepG2 lysate, 1.372 nM",209
same,FP signal (raw),"Hsp90 in HEPG2 lysate; HepG2 lysate, 4.115 nM",206
same,FP signal (raw),"Hsp90 in HEPG2 lysate; HepG2 lysate, 12.346 nM",187
same,FP signal (raw),"Hsp90 in HEPG2 lysate; HepG2 lysate, 37.037 nM",149
same,FP signal (raw),"Hsp90 in HEPG2 lysate; HepG2 lysate, 111.111 nM",105
same,FP signal (raw),"Hsp90 in HEPG2 lysate; HepG2 lysate, 333.333 nM",77
same,FP signal (raw),"Hsp90 in HEPG2 lysate; HepG2 lysate, 1000 nM",53
same,FP signal (raw),"Hsp90 in HEPG2 lysate; HepG2 lysate, 3000 nM",46
COc1ccccc1CON=C1C=CC=CC2OC2CC(C)OC(=O)c2c(O)cc(O)c(Cl)c2C1 (mixture of isomers) [compound 226],Ratio re. GdA,[1]; [2],24.5326
same,FP signal (raw),"[1]; SC5314 lysate, 0.457 nM",193
same,FP signal relative to 0 nM,[1]; [13],0.9461
same,FP signal,[1]; [13],193
same,FP signal (raw),"[1]; SC5314 lysate, 1.372 nM",197
same,FP signal relative to 0 nM,[1]; [14],0.9657
same,FP signal,[1]; [14],197
same,FP signal (raw),"[1]; SC5314 lysate, 4.115 nM",190
same,FP signal relative to 0 nM,[1]; [15],0.9314
same,FP signal,[1]; [15],190
same,FP signal (raw),"[1]; SC5314 lysate, 12.346 nM",193
same,FP signal relative to 0 nM,[1]; [16],0.9461
same,FP signal,[1]; [16],193
same,FP signal (raw),"[1]; SC5314 lysate, 37.037 nM",190
same,FP signal relative to 0 nM,[1]; [17],0.9314
same,FP signal,[1]; [17],190
same,FP signal (raw),"[1]; SC5314 lysate, 111.111 nM",176
same,FP signal relative to 0 nM,[1]; [18],0.8627
same,FP signal,[1]; [18],176
same,FP signal (raw),"[1]; SC5314 lysate, 333.333 nM",131
same,FP signal relative to 0 nM,[1]; [19],0.6422
same,FP signal,[1]; [19],131
same,FP signal (raw),"[1]; SC5314 lysate, 1000 nM",57
same,FP signal relative to 0 nM,[1]; [20],0.2794
same,FP signal,[1]; [20],57
same,FP signal (raw),"[1]; SC5314 lysate, 3000 nM",38
same,FP signal relative to 0 nM,[1]; [21],0.1863
same,FP signal,[1]; [21],38
same,EC50,"[1]; SC5314 lysate, not normalized, oxime panel experiment 220817",417 nM
same,HepG2/SC5314,"[1]; ratio of GdA-normalized EC50s, human over fungal lysate",1.34
same,HepG2/SC5314,"[1]; ratio of GdA-relative EC50 ratios, HepG2 over SC5314",1.34
same,Ratio rel. GdA (HepG2),Hsp90 in HEPG2 lysate; EC50 / EC50 of GdA in HepG2 lysate,32.872
same,Ratio rel. GdA (HepG2),Hsp90 in HEPG2 lysate; [3],32.872
same,"FP signal, Fxn Control",Hsp90 in HEPG2 lysate; [4],0.9856
same,"FP signal, Fxn Control",Hsp90 in HEPG2 lysate; [5],0.9952
same,"FP signal, Fxn Control",Hsp90 in HEPG2 lysate; [6],0.9952
same,"FP signal, Fxn Control",Hsp90 in HEPG2 lysate; [7],0.9809
same,"FP signal, Fxn Control",Hsp90 in HEPG2 lysate; [8],0.9426
same,"FP signal, Fxn Control",Hsp90 in HEPG2 lysate; [9],0.8517
same,"FP signal, Fxn Control",Hsp90 in HEPG2 lysate; [10],0.445
same,"FP signal, Fxn Control",Hsp90 in HEPG2 lysate; [11],0.2105
same,"FP signal, Fxn Control",Hsp90 in HEPG2 lysate; [12],0.9713
same,FP signal (raw),"Hsp90 in HEPG2 lysate; HepG2 lysate, 0.457 nM",203
same,FP signal,"Hsp90 in HEPG2 lysate; HepG2 lysate, 0.457 nM compound",203
same,FP signal (raw),"Hsp90 in HEPG2 lysate; HepG2 lysate, 1.372 nM",206
same,FP signal,"Hsp90 in HEPG2 lysate; HepG2 lysate, 1.372 nM compound",206
same,FP signal (raw),"Hsp90 in HEPG2 lysate; HepG2 lysate, 4.115 nM",208
same,FP signal,"Hsp90 in HEPG2 lysate; HepG2 lysate, 4.115 nM compound",208
same,FP signal (raw),"Hsp90 in HEPG2 lysate; HepG2 lysate, 12.346 nM",208
same,FP signal,"Hsp90 in HEPG2 lysate; HepG2 lysate, 12.346 nM compound",208
same,FP signal (raw),"Hsp90 in HEPG2 lysate; HepG2 lysate, 37.037 nM",205
same,FP signal,"Hsp90 in HEPG2 lysate; HepG2 lysate, 37.037 nM compound",205
same,FP signal (raw),"Hsp90 in HEPG2 lysate; HepG2 lysate, 111.111 nM",197
same,FP signal,"Hsp90 in HEPG2 lysate; HepG2 lysate, 111.111 nM compound",197
same,FP signal (raw),"Hsp90 in HEPG2 lysate; HepG2 lysate, 333.333 nM",178
same,FP signal,"Hsp90 in HEPG2 lysate; HepG2 lysate, 333.333 nM compound",178
same,FP signal (raw),"Hsp90 in HEPG2 lysate; HepG2 lysate, 1000 nM",93
same,FP signal,"Hsp90 in HEPG2 lysate; HepG2 lysate, 1000 nM compound",93
same,FP signal (raw),"Hsp90 in HEPG2 lysate; HepG2 lysate, 3000 nM",44
same,FP signal,"Hsp90 in HEPG2 lysate; HepG2 lysate, 3000 nM compound",44
same,EC50,"Hsp90 in HEPG2 lysate; HepG2 lysate, oxime panel experiment 220817",729 nM
